Some results are limits rather than exact numbers.

One assay has as its target T1, human Syk (GST-Syk) (Homo sapiens, UniProt P43405).
T1 construct: A cDNA fragment encoding human Syk openreading frame was cloned; made in house; host or cells: Sf21 insect cells (baculovirus, transfer vector pAcG2T)
As to the kind of experiment: Syk tyrosine kinase inhibitory assay. It is filed as biochemical. The settings on record: Table 11; read-out: Activity grade. An excerpt:
[Syk Tyrosine Kinase Inhibitory Assay]
(1) Preparation of Syk Protein
A cDNA fragment encoding human Syk openreading frame was cloned from total RNA of human Burkitt's lymphoma B cell lines, Raji (American Type Culture Collection), with the use of RT-PCR method. The cDNA fragment was inserted into pAcG2T (Pharmingen, San Diego, Calif.) to construct a baculovirus transfer vector. Then the vector, together with the linearized baculovirus (BaculoGold™, Pharmingen), was used to transfect Sf21 cells (Invitrogen, San Diego, Calif.).
Generated recombinant baculovirus was cloned and amplified in Sf21 cells. Sf21 cells were infected with this amplified high titer virus to produce a chimeric protein of Syk kinase fused by glutathione-S-transferase (GST).
The resulting GST-Syk was purified with the use of glutathione column (Amersham Pharmacia Biotech AB, Uppsala, Sweden) according to the manufacturer's instruction.
(2) Synthesize of a Peptide
Next, a peptide fragment of 30 residues including two tyrosine residues, […], was synthesized by a peptide synthesizer. The N-terminal of the fragment was then biotinylated to obtain biotinylated activation loop peptide (AL).
(3) The Measurement of Syk Tyrosine Kinase Activity
All reagents were diluted with the Syk kinase assay buffer (50 mM Tris-HCl (pH 8.0), 10 mM MgCl2, 0.1 mM Na3VO4, 0.1% BSA, 1 mM DTT). First, a mixture (35 μl) including […] of GST-Syk and 0.5 μg of AL was put in each well in 96-well plates. Then 5 μl of a test compound in the presence of 2.5% dimethylsulfoxide (DMSO) was added to each well. To this mixture was added […] (10 μl) to initiate the kinase reaction. The final reaction mixture (50 μl) consists of 0.65 nM GST-Syk, 3 μM AL, 30 μM ATP, a test compound, 0.25% DMSO, and a Syk kinase assay buffer.
The mixture was incubated for 1 hr at room temperature, and the reaction was terminated by the addition of 120 μl of termination buffer (50 mM Tris-HCl (pH 8.0), 10 mMEDTA, 500 mM NaCl, 0.1% BSA). The mixture was transferred to streptavidin-coated plates and incubated for 30 min at room temperature to combine biotin-AL to the plates. After washing the plates with Tris-buffered saline (TBS) (50 mM Tris-HCl (pH 8.0), 138 mM NaCl, 2.7 mM KCl) containing 0.05% Tween-20 for 3 times, 100 μl of antibody solution consisting of 50 mM Tris-HCl (pH 8.0), 138 mM NaCl, 2.7 mM KCl, 1% BSA, 60 ng/ml anti-phosphotyrosine monoclonal antibody, 4G10 (Upstate Biotechnology), which is labeled with europium by Amersham Pharmacia's kit in advance, was added and incubated at room temperature for 60 min. After washing, 100 μl of enhancement solution (Amersham pharmacia Biotech) was added and then time-resolved fluorescence was measured by multi-label counter ARVO (Wallac Oy, Finland) at 340 nm for excitation and 615 nm for emission with 400 msec of delay and 400 msec of window.
As to `COc1ccc(-c2cc3nccn3c(Nc3ccc(Br)cc3)n2)cc1OC` [Example 12-12], the IC50 is < 500 nM.

Regarding `c1ccc(Nc2nc(-c3ccc4c(c3)OCCO4)cc3nccn23)cc1` [Example 12-21], the IC50 is 500 to 2000 nM. As to `COc1ccc(-c2cc3nccn3c(Nc3ccc(Br)cn3)n2)cc1OC` [Example 12-9], the IC50 is < 500 nM.

For the compound `COc1ccc(-c2cc3nccn3c(Nc3ccc(CCN4CCOCC4)cc3)n2)cc1OC` [Example 12-1], the IC50 lay within 500 to 2000 nM. Consider `COc1cc(-c2cc3nccn3c(Nc3ccccc3)n2)ccc1O` [Example 12-19], for which the IC50 was < 500 nM.

Regarding `COc1cc(-c2cc3nccn3c(Nc3ccccc3)n2)ccc1N1CCOCC1` [Example 12-54], the IC50 is < 500 nM. Take `COc1ccc(Nc2nc(-c3ccc(OC)c(OC)c3)cc3nccn23)cn1` [Example 12-4]: the IC50 is < 500 nM. As to `COc1ccc(-c2cc3nccn3c(Nc3ccccn3)n2)cc1OC` [Example 12-3], the IC50 was < 500 nM.

In the case of `COc1cc(-c2cc3nccn3c(Nc3ccccc3)n2)ccc1OCCCN1CCN(C)CC1` [Example 12-36], the IC50 is < 500 nM.

Take `CCOc1ccc(-c2cc3nccn3c(Nc3ccccc3)n2)cc1OCC` [Example 12-23]: the IC50 is < 500 nM.

The assay is the same for the next values; noted with them: Table 13; read-out: Activity grade.
In the case of `COc1ccc(-c2cc3nccn3c(SCCN(C(C)C)C(C)C)n2)cc1OC` [Example 14-19], the IC50 lay in the range of 500 to 2000 nM. For the compound `COc1ccc(-c2cc3nccn3c(SC3CCCCC3)n2)cc1OC` [Example 14-29], the IC50 is < 500 nM. On the same count and under the same terms, the same measure for `Oc1ccc(Sc2nc(-c3ccccc3)cc3ncnn23)cc1` [Example 14-8]: 2000 to 10000 nM. Still for that read-out and setting: the same measure for `COC(=O)c1cccnc1Nc1nc(-c2ccc(OC)c(OC)c2)cc2nccn12` [Example 14-36]: 2000 to 10000 nM.

Still in this assay, the particulars now being: Table 15; read-out: Activity grade.
Turning to `COc1ccc(-c2cc3nccn3c(Sc3ccncc3N)n2)cc1OC` [Example 16-7], the IC50 was < 500 nM.

The assay is the same for the next values; noted with them: Table 16; read-out: Activity grade.
As for `CCSc1nc(-c2ccc(N(C)CCCN3CCOCC3)c(OC)c2)cc2nccn12` [Example 17-17], the IC50 is < 500 nM.

The same assay, now with this note: Table 17; IC50 classes; read-out: Activity grade.
On to `COc1ccc(-c2cc3nccn3c(SCC(=O)O)n2)cc1OC` [Example 26], for which the IC50 was 2000 to 10000 nM. The same measure, in the same setting: the same measure for `COc1ccc(-c2cc3nccn3c(-c3ccccc3)n2)cc1OC` [Example 34]: 500 to 2000 nM; for `COc1ccc(-c2cc3nccn3c(N(C)c3ccccn3)n2)cc1OC` [compound 4]: 2000 to 10000 nM. The same measure, in the same setting: the same measure for `COc1ccc(-c2cc3nccn3c(Nc3ccc(N)cc3C(N)=O)n2)cc1OC` [Example 33]: < 500 nM.

Turning to `CCSc1nc(-c2ccc(OC)c(OC)c2)cc2nc(C(N)=O)cn12` [Example 28], the IC50 is 500 to 2000 nM. For `CCSc1nc(-c2ccc(OC)c([N+](=O)[O-])c2)cc2nccn12` [Example 27], the IC50 is < 500 nM. With `COc1ccc(-c2cc3nccn3c(Nc3cc(N(C)C)ccc3C(N)=O)n2)cc1OC` [Example 13], the IC50 was < 500 nM.

Staying with this assay, now noted: in vitro; compounds as yielded by solid phase synthesis, purity about 40 to 90%.
As to `CCSc1nc(-c2ccc(S(=O)(=O)N3CCOCC3)c(OC)c2)cc2nccn12` [Example 2-6], the “Activity grade (IC50 class)” value is listed as “C-D”. With `COc1ccc(-c2cc3nccn3c(N(C)c3ccc(C(=O)O)cc3)n2)cc1OC` [Example 11-42], the “Activity grade (IC50 class)” value is “C-D”. Regarding `CCOC(=O)CCNS(=O)(=O)c1ccc(-c2cc3nccn3c(SCC)n2)cc1OC` [Example 2-11], the “Activity grade (IC50 class)” value is “C-D”.

Staying with this assay, now noted: in vitro; compounds as yielded by solid phase synthesis, purity about 40 to 90%; read-out: Activity grade (IC50 class).
Take `COc1ccc(-c2cc3nccn3c(Nc3ccc([N+](=O)[O-])cc3)n2)cc1OC` [Example 11-33]: the IC50 was < 500 nM.

Turning to `CCNC(=O)Oc1cc(-c2cc3nccn3c(SCC)n2)ccc1OC` [Example 4-8], the IC50 is < 500 nM. Turning to `COc1ccc(-c2cc3nccn3c(SCC3CC3)n2)cc1OC` [Example 9-7], the IC50 was < 500 nM. For the compound `COc1ccc(-c2cc3nccn3c(NCCc3c[nH]c4ccccc34)n2)cc1OC` [Example 9-83], the IC50 is < 500 nM.

Consider `COc1ccc(-c2cc3nccn3c(N(C)CCN(C)C)n2)cc1OC` [Example 9-76], for which the IC50 was 2000 to 10000 nM. In the case of `COc1ccc(-c2cc3nccn3c(Nc3ccc(Br)cc3C(N)=O)n2)cc1OC` [Example 11-97], the IC50 is < 500 nM. Take `COC(=O)c1ccc(Nc2nc(-c3ccc(OC)c(OC)c3)cc3nccn23)cc1` [Example 11-26]: the IC50 was < 500 nM. The same measure, in the same setting: the same measure for `COc1ccc(-c2cc3nccn3c(N3CCOCC3)n2)cc1OC` [Example 9-30]: 2000 to 10000 nM. For the compound `COc1ccc(Nc2nc(-c3ccc(OC)c(OC)c3)cc3nccn23)cc1F` [Example 11-100], the IC50 was < 500 nM. Consider `COc1ccc(-c2cc3nccn3c(Nc3ccccc3Cl)n2)cc1OC` [Example 11-55], for which the IC50 was < 500 nM.

Turning to `COc1ccc(-c2cc3nccn3c(Sc3cccc(Cl)c3Cl)n2)cc1OC` [Example 13-5], the IC50 was 2000 to 10000 nM.

On to `COc1ccc(-c2cc3nccn3c(Nc3ccc4[nH]nnc4c3)n2)cc1OC` [Example 11-12], for which the IC50 was < 500 nM. As for `CCSc1nc(-c2ccc(O)c(O)c2)cc2nccn12` [material for Example 6, 4-(5-Ethylsulfanyl-imidazo[1,2-c]pyrimidin-7-yl)-benzene-1,2-diol], the IC50 lay in the range of 2000 to 10000 nM. As to `COc1ccc(N2CCN(c3nc(-c4ccc(OC)c(OC)c4)cc4nccn34)CC2)cc1` [Example 9-40], the IC50 was in the range of 2000 to 10000 nM. Still for that read-out and setting: the same measure for `COc1ccc(CNc2nc(-c3ccc(OC)c(OC)c3)cc3nccn23)c(OC)c1` [Example 9-80]: 500 to 2000 nM. For `COc1ccc(-c2cc3nccn3c(N(C)c3ccc(OC(F)(F)F)cc3)n2)cc1OC` [Example 11-46], the IC50 is 500 to 2000 nM. `CCSc1nc(-c2ccc(OC)cc2)cc2nccn12` [Example 1-5]: the IC50 is 500 to 2000 nM. Take `CCCCOC(=O)CSc1nc(-c2ccc(OC)c(OC)c2)cc2nccn12` [Example 9-92]: the IC50 is 500 to 2000 nM.

As to `COc1ccc(-c2cc3nccn3c(N3CCC(O)(c4ccc(Cl)cc4)CC3)n2)cc1OC` [Example 9-64], the IC50 was in the range of 2000 to 10000 nM. Regarding `COc1ccc(-c2cc3nccn3c(N3CCN(Cc4ccc5c(c4)OCO5)CC3)n2)cc1OC` [Example 9-32], the IC50 was in the range of 2000 to 10000 nM. Take `COc1ccc(-c2cc3nccn3c(N(CCO)Cc3ccccc3)n2)cc1OC` [Example 9-29]: the IC50 was < 500 nM. Turning to `CCOC(=O)Cc1ccc(Nc2nc(-c3ccc(OC)c(OC)c3)cc3nccn23)cc1` [Example 9-23], the IC50 was < 500 nM. Regarding `COc1ccc(-c2cc3nccn3c(N3CCCC3)n2)cc1OC` [Example 9-55], the IC50 fell in the range of 500 to 2000 nM. Turning to `COc1ccc(-c2cc3nccn3c(N(CCC#N)c3ccccc3)n2)cc1OC` [Example 11-48], the IC50 was < 500 nM. For `COC(=O)c1cc(Br)ccc1Nc1nc(-c2ccc(OC)c(OC)c2)cc2nccn12` [Example 11-86], the IC50 is < 500 nM. `COc1ccc(-c2cc3nccn3c(Nc3ccc(S(=O)(=O)N4CCOCC4)cc3)n2)cc1OC` [Example 11-116]: the IC50 was < 500 nM. Take `COc1ccc(-c2cc3nccn3c(NCCc3ccccn3)n2)cc1OC` [Example 9-84]: the IC50 lay in the range of 500 to 2000 nM.

As to `COc1ccc(-c2cc3nccn3c(Nc3cc(N(C)C)ccc3C(N)=O)n2)cc1OC` [Example 13], the IC50 was < 500 nM. Same read-out and setting: the same measure for `COc1ccc(-c2cc3nccn3c(N3CCN(c4ccccc4)CC3)n2)cc1OC` [Example 9-33]: 2000 to 10000 nM; for `C=CCOc1ccc(-c2cc3nccn3c(SCC)n2)cc1OC` [Example 3-2]: < 500 nM; for `COc1ccc(-c2cc3nccn3c(Nc3cccc(OC(F)(F)F)c3)n2)cc1OC` [Example 11-69]: < 500 nM. In the case of `COc1ccc(-c2cc3nccn3c(Nc3ccc(C(N)=O)c(N)c3)n2)cc1OC` [Example 11-129], the IC50 was < 500 nM. Turning to `COc1ccc(-c2cc3nccn3c(N[C@@H](CO)Cc3ccccc3)n2)cc1OC` [Example 9-5], the IC50 lay within 500 to 2000 nM.

With `COc1ccc(-c2cc3nccn3c(Nc3ccc(F)cc3F)n2)cc1OC` [Example 11-54], the IC50 was < 500 nM.

Source of the values: patent US6911443B2 (Bayer Aktiengesellschaft, priority 2000, dated 2005).
